Values quoted from earlier work, collected in patent US8978468B2, “Nonvisual indication of an unwanted chemical in an ingestible substance” (priority 2009, dated 2015).
Read-outs that look alike come from different tables or passages of the source.

Columns and labels:
[1] = species and route not given
[2] = test system: mammal (species unspecified); conditions: route not given

Compound: NC1CCCCC1 [cyclohexanamine]
- Toxic Dose oral-rat LD50 (rat; in vivo, po): oral-rat LD50 11 mg/kg
- Toxic Dose LD50 [1]: LD50 224 mg/kg

Compound: SC1CCCC1 [cyclopentanethiol]
- Toxic Dose oral-mouse LD50 [sex: M, F (5/group)] (mouse; oral, sex: M, F (5/group)): (5/group)] 2680 mg/kg

Compound: butane-1-thiol
- Toxic Dose gavage-rat LD50 (rat; gavage): gavage-rat LD50 1500 mg/kg

Compound: NCCCC(=O)O [4-aminobutanoic acid]
- Toxic Dose oral-mouse LD50 (mouse; oral): oral-mouse LD50 12680 mg/kg
- Toxic Dose mouse LD50 (mouse; route not given): mouse LD50 7230 mg/kg

Compound: propan-1-amine
- Toxic Dose oral-rat LD50 (rat; oral): oral-rat LD50 370 mg/kg
- Toxic Dose mammal (species unspecified) LD50 [2]: LD50 580 mg/kg

Compound: 2-methylpropane-1-thiol
- Toxic Dose gavage-rat LD50 (rat; gavage): gavage-rat LD50 7168 mg/kg
- Toxic Dose oral-rat LD50 (rat; oral): oral-rat LD50 7168 mg/kg

Compound: propan-2-amine
- Toxic Dose oral-rat LD50 (rat; oral): oral-rat LD50 111 mg/kg
- Toxic Dose mammal (species unspecified) LD50 [2]: LD50 500 mg/kg

Compound: 2-aminoethanol
- Toxic Dose oral-rat LD50 (rat; oral): oral-rat LD50 1720 mg/kg

Compound: CC(C)C(C)S (stereo not drawn) [3-methylbutane-2-thiol]
- Toxic Dose gavage-rat LD50 [sex: M, F] (rat; gavage, sex: M, F): 540 mg/kg

Compound: CC1OCCC1S (stereo not drawn) [2-methyltetrahydrofuran-3-thiol]
- Toxic Dose gavage-mouse LD50 (mouse; gavage): gavage-mouse LD50 1860 mg/kg
